Results: ChEMBL document CHEMBL2010711, “Synthesis and comparative evaluation of 4-oxa- and 4-aza-podophyllotoxins as antiproliferative microtubule destabilizing agents” (Bioorg Med Chem Lett, 2012)
Activity calls are given as the source filed them.

Legend:
OVCAR-3 = assay: Cytotoxicity against human OVCAR3 cells after 48 hrs by trypan blue dye exclusion assay; assay type: functional; settings: OVCAR-3, 48 h
SK-MEL-2 = assay: Cytotoxicity against human SK-MEL-2 cells after 48 hrs by trypan blue dye exclusion assay; assay type: functional; settings: SK-MEL-2, 48 h
SR = assay: Cytotoxicity against human SR cells after 48 hrs by trypan blue dye exclusion assay; assay type: functional
K562 = assay: Cytotoxicity against human K562 cells after 48 hrs by trypan blue dye exclusion assay; assay type: functional; settings: K562, 48 h
HCC 2998 = assay: Cytotoxicity against human HCC2998 cells after 48 hrs by trypan blue dye exclusion assay; assay type: functional; settings: HCC 2998, 48 h
SK-MEL-5 = assay: Cytotoxicity against human SK-MEL-5 cells after 48 hrs by trypan blue dye exclusion assay; assay type: functional; settings: SK-MEL-5, 48 h
OVCAR-4 = assay: Cytotoxicity against human OVCAR4 cells after 48 hrs by trypan blue dye exclusion assay; assay type: functional; settings: OVCAR-4, 48 h
MDA-MB-435 = assay: Cytotoxicity against human MDA-MB-435 cells after 48 hrs by trypan blue dye exclusion assay; assay type: functional; settings: MDA-MB-435, 48 h
TK-10 = assay: Cytotoxicity against human TK10 cells after 48 hrs by trypan blue dye exclusion assay; assay type: functional; settings: TK-10, 48 h
Paracentrotus lividus [1] = assay: Microtubule destabilizing activity in Paracentrotus lividus embryo assessed as concentration required to cause 100% embryo spinning after 15 mins to 20 hrs; assay type: functional
CAKI-1 = assay: Cytotoxicity against human CAKI-1 cells after 48 hrs by trypan blue dye exclusion assay; assay type: functional; settings: CAKI-1, 48 h
OVCAR-5 = assay: Cytotoxicity against human OVCAR5 cells after 48 hrs by trypan blue dye exclusion assay; assay type: functional; settings: OVCAR-5, 48 h
SF-268 = assay: Cytotoxicity against human SF268 cells after 48 hrs by trypan blue dye exclusion assay; assay type: functional; settings: SF-268, 48 h
NCI-H460 = assay: Cytotoxicity against human NCI-H460 cells after 48 hrs by trypan blue dye exclusion assay; assay type: functional; settings: NCI-H460, 48 h
Malme-3M = assay: Cytotoxicity against human MALME-3M cells after 48 hrs by trypan blue dye exclusion assay; assay type: functional
NCI-H522 = assay: Cytotoxicity against human NCI-H522 cells after 48 hrs by trypan blue dye exclusion assay; assay type: functional; settings: NCI-H522, 48 h
SNB-19 = assay: Cytotoxicity against human SNB19 cells after 48 hrs by trypan blue dye exclusion assay; assay type: functional; settings: SNB-19, 48 h
M14 = assay: Cytotoxicity against human M14 cells after 48 hrs by trypan blue dye exclusion assay; assay type: functional; settings: M14, 48 h
NCI-H322M = assay: Cytotoxicity against human NCI-H322M cells after 48 hrs by trypan blue dye exclusion assay; assay type: functional
A549 = assay: Cytotoxicity against human A549 cells after 48 hrs by trypan blue dye exclusion assay; assay type: functional; settings: A549, 48 h
EKVX = assay: Cytotoxicity against human EKVX cells after 48 hrs by trypan blue dye exclusion assay; assay type: functional
MDA-MB-231 = assay: Cytotoxicity against human MDA-MB-231 cells after 48 hrs by trypan blue dye exclusion assay; assay type: functional; settings: MDA-MB-231, 48 h
Paracentrotus lividus [2] = assay: Antimitotic activity against Paracentrotus lividus embryo assessed as cleavage alteration at 2 fold less effective threshold concentration after 2.5 to 6 hrs; assay type: functional, organism-based
PC-3 = assay: Cytotoxicity against human PC3 cells after 48 hrs by trypan blue dye exclusion assay; assay type: functional; settings: PC-3, 48 h
NCI/ADR-RES = assay: Cytotoxicity against human NCI/ADR-RES cells after 48 hrs by trypan blue dye exclusion assay; assay type: functional
SN12C = assay: Cytotoxicity against human SN12C cells after 48 hrs by trypan blue dye exclusion assay; assay type: functional
786-0 = assay: Cytotoxicity against human 786-0 cells after 48 hrs by trypan blue dye exclusion assay; assay type: functional; settings: 786-0, 48 h
SF-539 = assay: Cytotoxicity against human SF539 cells after 48 hrs by trypan blue dye exclusion assay; assay type: functional; settings: SF-539, 48 h
NCI-H226 = assay: Cytotoxicity against human NCI-H226 cells after 48 hrs by trypan blue dye exclusion assay; assay type: functional; settings: NCI-H226, 48 h
Jurkat = assay: Cytotoxicity against human Jurkat cells; assay type: functional, cell-based
OVCAR-8 = assay: Cytotoxicity against human OVCAR8 cells after 48 hrs by trypan blue dye exclusion assay; assay type: functional; settings: OVCAR-8, 48 h
MCF7 = assay: Cytotoxicity against human MCF7 cells after 48 hrs by trypan blue dye exclusion assay; assay type: functional; settings: MCF7, 48 h
Paracentrotus lividus [3] = assay: Antimitotic activity against Paracentrotus lividus embryo assessed as cleavage arrest at 2 fold less effective threshold concentration after 2.5 to 6 hrs; assay type: functional, organism-based
[4] = Cytotoxicity against human Hs 578T cells after 48 hrs by trypan blue dye exclusion assay; assay type: functional
A498 = assay: Cytotoxicity against human A498 cells after 48 hrs by trypan blue dye exclusion assay; assay type: functional; settings: A498, 48 h
MDA-MB-468 = assay: Cytotoxicity against human MDA-MB-468 cells after 48 hrs by trypan blue dye exclusion assay; assay type: functional; settings: MDA-MB-468, 48 h
RPMI-8226 = assay: Cytotoxicity against human RPMI8226 cells after 48 hrs by trypan blue dye exclusion assay; assay type: functional; settings: RPMI-8226, 48 h
LOX IMVI = assay: Cytotoxicity against human LOXIMVI cells after 48 hrs by trypan blue dye exclusion assay; assay type: functional
UO-31 = assay: Cytotoxicity against human UO31 cells after 48 hrs by trypan blue dye exclusion assay; assay type: functional; settings: UO-31, 48 h
RXF 393 = assay: Cytotoxicity against human RXF393 cells after 48 hrs by trypan blue dye exclusion assay; assay type: functional; settings: RXF 393, 48 h
Paracentrotus lividus [5] = assay: Microtubule destabilizing activity in Paracentrotus lividus embryo assessed as embryo spinning at 2 fold less effective threshold concentration after 15 mins to 20 hrs; assay type: functional, organism-based
NCI-H23 = assay: Cytotoxicity against human NCI-H23 cells after 48 hrs by trypan blue dye exclusion assay; assay type: functional; settings: NCI-H23, 48 h
SW-620 = assay: Cytotoxicity against human SW620 cells after 48 hrs by trypan blue dye exclusion assay; assay type: functional; settings: SW-620, 48 h
HOP-92 = assay: Cytotoxicity against human HOP92 cells after 48 hrs by trypan blue dye exclusion assay; assay type: functional; settings: HOP-92, 48 h
U-251 = assay: Cytotoxicity against human U251 cells after 48 hrs by trypan blue dye exclusion assay; assay type: functional; settings: U-251, 48 h
MOLT-4 = assay: Cytotoxicity against human MOLT4 cells after 48 hrs by trypan blue dye exclusion assay; assay type: functional; settings: MOLT-4, 48 h
COLO 205 = assay: Cytotoxicity against human COLO205 cells after 48 hrs by trypan blue dye exclusion assay; assay type: functional; settings: COLO 205, 48 h
SK-OV-3 = assay: Cytotoxicity against human SKOV3 cells after 48 hrs by trypan blue dye exclusion assay; assay type: functional; settings: SK-OV-3, 48 h
UACC-62 = assay: Cytotoxicity against human UACC62 cells after 48 hrs by trypan blue dye exclusion assay; assay type: functional; settings: UACC-62, 48 h
HCT-15 = assay: Cytotoxicity against human HCT15 cells after 48 hrs by trypan blue dye exclusion assay; assay type: functional; settings: HCT-15, 48 h
Paracentrotus lividus [6] = assay: Antimitotic activity against Paracentrotus lividus embryo assessed as concentration required to cause 100% cleavage arrest after 2.5 to 6 hrs; assay type: functional

Which GI50 (OVCAR-3) does the source give for `COc1ccc2c(c1)OC1=C(C(=O)OC1)C2c1cc(OC)c2c(c1)OCO2` (stereo not drawn) here?
The GI50 was 20.9 nM.

What about the TGI (OVCAR-3) of the same molecule?
The TGI was 44.6 nM.

And the GI50 (SK-MEL-2)?
The GI50 was 34.3 nM.

What about the GI50 (SR) of the same molecule?
The GI50 was 37.8 nM.

And the GI50 (K562)?
Its GI50 is 33 nM.

And the GI50 (HCC 2998)?
The GI50 was 42.1 nM.

And the GI50 (SK-MEL-5)?
Its GI50 is 36.9 nM.

What about the GI50 (OVCAR-4) of the same molecule?
Its GI50 is 59.8 nM.

What about the GI50 (MDA-MB-435) of the same molecule?
Its GI50 is under 10 nM.

What about the GI50 (TK-10) of the same molecule?
The GI50 was 268 nM.

And the EC (Paracentrotus lividus [1])?
Its EC is 100 nM.

And the GI50 (CAKI-1)?
The GI50 was 58 nM.

And the GI50 (OVCAR-5)?
Its GI50 is 153 nM.

And the GI50 (SF-268)?
Its GI50 is 78 nM.

And the GI50 (NCI-H460)?
The GI50 was 36.6 nM.

What about the GI50 (Malme-3M) of the same molecule?
The GI50 was over 100000 nM.

What about the GI50 (NCI-H522) of the same molecule?
The GI50 was under 10 nM.

What about the GI50 (SNB-19) of the same molecule?
Its GI50 is 47.9 nM.

What about the GI50 (M14) of the same molecule?
Its GI50 is 23.3 nM.

What about the GI50 (NCI-H322M) of the same molecule?
Its GI50 is 71.3 nM.

What about the GI50 (A549) of the same molecule?
The GI50 was 44.4 nM.

What about the GI50 (EKVX) of the same molecule?
Its GI50 is 77.8 nM.

What about the GI50 (MDA-MB-231) of the same molecule?
Its GI50 is 61.4 nM.

What about the Activity (Paracentrotus lividus [2]) of the same molecule?
The Activity was “inactive”.

What about the GI50 (PC-3) of the same molecule?
The GI50 was 40.9 nM.

What about the GI50 (NCI/ADR-RES) of the same molecule?
The GI50 was 18.6 nM.

What about the GI50 (SN12C) of the same molecule?
Its GI50 is 62.5 nM.

What about the GI50 (786-0) of the same molecule?
Its GI50 is 51.4 nM.

What about the GI50 (SF-539) of the same molecule?
Its GI50 is 34.4 nM.

What about the GI50 (NCI-H226) of the same molecule?
The GI50 was 33.4 nM.

What about the IC50 (Jurkat) of the same molecule?
The IC50 was 55 nM.

What about the GI50 (OVCAR-8) of the same molecule?
The GI50 was 55.6 nM.

And the GI50 (MCF7)?
The GI50 was 29.1 nM.

What about the Activity (Paracentrotus lividus [3]) of the same molecule?
Its Activity is “inactive”.

And the GI50 [4]?
The GI50 was 30.8 nM.

And the GI50 (A498)?
The GI50 was 27.2 nM.

What about the GI50 (MDA-MB-468) of the same molecule?
The GI50 was 26.3 nM.

And the GI50 (RPMI-8226)?
Its GI50 is 48.5 nM.

What about the GI50 (LOX IMVI) of the same molecule?
Its GI50 is 69.1 nM.

And the GI50 (UO-31)?
Its GI50 is 57.6 nM.

And the GI50 (RXF 393)?
Its GI50 is 17.8 nM.

What about the Activity (Paracentrotus lividus [5]) of the same molecule?
Its Activity is “inactive”.

And the GI50 (NCI-H23)?
The GI50 was 23.5 nM.

And the GI50 (SW-620)?
Its GI50 is 39.2 nM.

What about the GI50 (HOP-92) of the same molecule?
The GI50 was 73000 nM.

What about the GI50 (U-251) of the same molecule?
The GI50 was 42.7 nM.

And the GI50 (MOLT-4)?
Its GI50 is 65 nM.

What about the GI50 (COLO 205) of the same molecule?
The GI50 was 27.8 nM.

And the TGI (COLO 205)?
The TGI was 69.2 nM.

And the GI50 (SK-OV-3)?
The GI50 was 29.3 nM.

What about the GI50 (UACC-62) of the same molecule?
The GI50 was 35 nM.

What about the GI50 (HCT-15) of the same molecule?
Its GI50 is 47.5 nM.

And the EC (Paracentrotus lividus [6])?
The EC was 10 nM.
